One data set deals with T1, HDAC6 (Homo sapiens, UniProt Q9UBN7).
T1 construct: purchased Enzo Life Sciences
T1 sequence (Q9UBN7 1-1215): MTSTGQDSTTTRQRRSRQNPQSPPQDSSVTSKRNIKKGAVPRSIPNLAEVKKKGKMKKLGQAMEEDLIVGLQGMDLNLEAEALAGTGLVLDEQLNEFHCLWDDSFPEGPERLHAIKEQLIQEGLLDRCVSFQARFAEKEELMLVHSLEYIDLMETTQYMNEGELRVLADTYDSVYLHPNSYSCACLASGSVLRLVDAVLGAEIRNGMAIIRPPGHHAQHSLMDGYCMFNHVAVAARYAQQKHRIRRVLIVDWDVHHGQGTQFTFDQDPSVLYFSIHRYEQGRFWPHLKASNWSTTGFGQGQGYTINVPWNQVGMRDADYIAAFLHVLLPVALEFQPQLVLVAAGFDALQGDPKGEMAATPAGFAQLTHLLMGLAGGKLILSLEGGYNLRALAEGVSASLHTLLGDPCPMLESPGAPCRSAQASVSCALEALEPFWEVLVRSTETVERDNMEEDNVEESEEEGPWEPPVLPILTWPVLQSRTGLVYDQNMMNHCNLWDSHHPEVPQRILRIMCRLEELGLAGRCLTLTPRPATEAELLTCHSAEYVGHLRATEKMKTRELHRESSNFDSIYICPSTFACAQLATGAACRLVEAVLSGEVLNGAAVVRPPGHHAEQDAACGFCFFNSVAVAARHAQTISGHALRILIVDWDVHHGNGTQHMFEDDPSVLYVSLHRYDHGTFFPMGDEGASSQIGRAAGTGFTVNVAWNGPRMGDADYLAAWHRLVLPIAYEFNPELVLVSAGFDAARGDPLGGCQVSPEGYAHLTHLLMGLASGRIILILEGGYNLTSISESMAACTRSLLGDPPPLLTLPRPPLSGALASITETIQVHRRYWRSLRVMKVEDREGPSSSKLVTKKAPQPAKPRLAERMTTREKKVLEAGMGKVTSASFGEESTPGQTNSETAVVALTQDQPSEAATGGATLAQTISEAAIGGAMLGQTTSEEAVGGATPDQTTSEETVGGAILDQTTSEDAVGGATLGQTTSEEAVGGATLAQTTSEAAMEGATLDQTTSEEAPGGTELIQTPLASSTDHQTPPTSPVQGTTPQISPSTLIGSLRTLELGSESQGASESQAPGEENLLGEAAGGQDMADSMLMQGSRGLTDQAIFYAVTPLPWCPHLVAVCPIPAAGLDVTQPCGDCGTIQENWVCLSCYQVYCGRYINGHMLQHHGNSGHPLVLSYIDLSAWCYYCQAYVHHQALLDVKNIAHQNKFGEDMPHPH
The experiment in a line: Fluorimetric measurement of HDAC6 activity (FLUOR DE LYS kit). The data set is classed as biochemical.

Data set [1] is described as follows: DPPH radical scavenging activity. Particulars: Trolox equivalent; compounds and Trolox 100 µM. From the text:
(§1) DPPH is a stable chromogen radical, which is widely used to assess the antioxidant activity of biological objects, in particular when searching for potential therapeutic agents used to maintain the redox balance in the body and treat pathologies associated with the action of free radicals. In turn, the oxygen radical absorbance capacity (ORAC) analysis is based on the removal by potential antioxidants of peroxyl radicals generated by AAPH (2,2’-axobis-2-methyl-propanimidamide, dihydrochloride), preventing the degradation of the fluorescein probe.
The measurement of the antiradical activity of synthesized hydroxamic acids was carried out using the method described in [150]. The studied compounds were introduced into the wells of a 96-well black tablet (the final concentration was 100 microns), after which a freshly prepared solution of 2,2-diphenyl-1-picrylhydrazyl (Sigma Aldrich, St. Louis, Missouri, USA) was added. After the incubation time had elapsed, the DPPH radical-scavenging activity was measured using a multifunctional Cytation™3 tablet analyzer (BioTek Instruments, Inc., Winooski, VT, USA) at λ = 517 nm by the difference in the reduction of the DPPH radical peak between control samples containing an equivalent volume of solvent and samples with the substances under study.
(DPPH is a stable violet radical that fades when it is reduced.)

Data set [2] is described as follows: Oxygen radical absorbance capacity (ORAC). Particulars: Trolox equivalent; compounds and Trolox 100 µM, AAPH 12 mM.
Text: as §1
The analysis of the absorption capacity of oxygen radicals was performed as described in [151], with some modifications. Trolox (Sigma Aldrich, St. Louis, MI, USA) was used as a standard antioxidant. The studied compounds were introduced into the holes of a 96-hole black tablet with a transparent bottom with Trolox (25 µL; the final concentration was 100 µM) and fluorescein (150 µL; the final concentration was 80 nM, Sigma Aldrich, St. Louis, MI, USA). The resulting mixture was shaken and incubated for 30 min at 37 °C. After a 30-min incubation period, a solution of 2,2’-azobis (2-amidinopropane) dihydrochloride (AAPH) (25 µL; final concentration of 12 mM, Sigma Aldrich, St. Louis, MI, USA) was quickly introduced into all wells of the tablet. The tablet was immediately placed in a multifunctional tablet analyzer Cytation™ 3 (BioTek Instruments, Inc., Winooski, VT, USA). The fluorescence intensity was recorded for 300 min at λex = 480 nm, λem = 520 nm with an interval of every 5 min. In the same experiment, calibration solutions for the reference antioxidant Trolox were used to confirm the validity of the use of this method (0, 6.25, 12.5, 25, 50 and 100 µM).

The target of data set [3] is T2, β-amyloid peptide 1-42 (Aβ1-42) (Homo sapiens, UniProt P05067).
T2 construct: the pathological form of β-amyloid peptide 1-42 (Sigma Aldrich); purchased Sigma Aldrich
The experiment in a line: Thioflavin T fluorescent analysis of Aβ1-42 aggregation. The data set is classed as biochemical. Particulars: 48 h, compounds 100 µM, Thioflavin T 10 µM, 48 h registration; read-out: prevention of the aggregation of Aβ1-42. From the text:
The aggregation process of β-amyloid peptide 1-42 (Aβ1-42), caused by hydrophobic interactions of peptide monomers and, as a consequence, the formation of the most toxic polymorphic structure-oligomeric fragments of Aβ, was detected using the fluorescent dye Thioflavin T (Figure 4a). This method is the most widely used for selective staining and the identification of amyloid aggregates, which is confirmed by a large number of works. Fluorescence analysis using Thioflavin T made it possible to monitor the aggregation process of the pathological form of β-amyloid peptide 1-42 (Sigma Aldrich, St. Louis, MI, USA). The experimental protocol was carried out similarly to that described in [58] with some modifications. The registration of changes in the fluorescence of thioflavin T (10 µM, Sigma Aldrich, St. Louis, MI, USA) was performed on a multifunctional tablet analyzer Cytation™3 (BioTek Instruments, Inc., Winooski, VT, USA) at λex = 450 nm, λem = 480 nm. The fluorescence intensity of the solution without Aβ1-42 was subtracted from the fluorescence values of solutions containing protein, due to the need to subtract the background fluorescence.

A short description of another data set: Cell viability, MTT test. In kind it is cell-based. Conditions: human, SH-SY5Y neuroblastoma cells, 24-h exposure, read-out: IC50 cytotoxic action. The procedure:
The culture of human neuroblastoma cells (defined as SH-SY5Y) was cultured in DMEM with the addition of embryonic bovine serum (10%), 2 mM glutamine (DiaM, Moscow, Russia) and penicillin-streptomycin (100 U/Ml–100 µg/mL, PanEco, Moscow, Russia) in conditions of 5% CO2 in the air at 37 °C. Upon reaching 80% confluence, cells in the amount of 1 × 10^4 were placed in 96-well transparent plates and incubated under the same conditions for 24 h. After the incubation time, the cells were exposed to a 24-h exposure to various concentrations of hydroxamic acids dissolved in dimethyl sulfoxide (range from 1 to 100 µM). An equivalent volume of solvent was used as a control (final DMSO content = 1%).
Cell survival analysis was performed using MTT test. To do this, 3-(4,5-dimethylthiazol-2-yl)-2,5-diphenyltetrazolium bromide (MTT, 5 mg/mL, DiaM, Moscow, Russia) was introduced into all wells and incubated at 37 °C for 2 h to restore metabolically active cells of the yellow tetrazolium salt MTT to purple formazane crystals. The resulting formazane was then re-suspended in 200 µL DMSO per well. The optical density was recorded using a multifunctional Cytation™3 flatbed analyzer (BioTek Instruments, Inc., Winooski, VT, USA) at λ = 530 nm.

Setting [4] is: Table 1, read-out: HDAC6-Inhibitory Effect, IC50.
Where [5] appears, read: HDAC6, values as listed in Table S1 beside docking score, read-out: IC50.

Read-outs that look alike come from different tables or passages of the source. Some results are limits rather than exact numbers.

Broadly, the IC50 is the point on the concentration scale where inhibition reaches its midpoint. By melting point is commonly meant the temperature of the solid-liquid transition.

T2 sequence (P05067 672-713 limits assumed): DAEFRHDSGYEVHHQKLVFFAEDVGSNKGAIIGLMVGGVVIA

Regarding `CC1(C)[C@H]2CC[C@@H](CNC(=O)/C=C/c3ccc(C(=O)NO)cc3)[C@@H]1C2` [Compound 35c, 4-((E)-3-((((1S,2R,5S)-6,6-dimethylbicyclo[3.1.1]heptan-2-yl)methyl)amino)-3-oxoprop-1-en-1-yl)-N-hydroxybenzamide], the melting point was in the range of 139.5 to 141.4 °C. The IC50 on HDAC6 (setting [4]) was determined as 6.9 ± 0.43 µM. The “DPPH value (TE)” value in data set [1] is given as 0.71 TE. For the same compound, in data set [2], the “ORAC value (TE)” value stood at 1.02 TE. Besides, in data set [3], the inhibition at 100 µM is at most 40%. The IC50 at 24 h in “Cell viability, MTT test” is 86.7 ± 1.45 µM.

With `C=C(C)[C@@H]1CC=C(CNC(=O)c2ccc(/C=C/C(=O)NO)cc2)CC1` [Compound 38a, (S,E)-4-(3-(hydroxyamino)-3-oxoprop-1-en-1-yl)-N-((4-(prop-1-en-2-yl)cyclohex-1-en-1-yl)methyl)benzamide], the melting point lay within 167.2 to 167.6 °C. The 50% inhibitory concentration (IC50) on HDAC6 (setting [5]) worked out at 7.74 µM. Besides, the “DPPH value (TE)” value in data set [1] is on record as 0.66 TE. Further, the “ORAC value (TE)” value in data set [2] was determined as 1.00 TE. Moreover, the inhibition at 100 µM in data set [3] was 60.1%. Moreover, the IC50 at 24 h in the data set “Cell viability, MTT test” was above 100 µM.

For `CC(C)c1ccc(CNC(=O)c2ccc(/C=C/C(=O)NO)cc2)cc1` [Compound 38b, (E)-4-(3-(hydroxyamino)-3-oxoprop-1-en-1-yl)-N-(4-isopropylbenzyl)benzamide], the melting point was in the range of 160.3 to 164.9 °C. The IC50 on HDAC6 (setting [4]) was found to be 4.78 ± 0.04 µM. Further, the “DPPH value (TE)” value in data set [1] worked out at 0.79 TE. Besides, the “ORAC value (TE)” value in data set [2] turned out to be 1.04 TE. Further, the inhibition at 100 µM in data set [3] was found to be 63.9%. In addition, the IC50 at 24 h in the data set “Cell viability, MTT test” was above 100 µM.

The compound `CC1(C)[C@H]2CC[C@@H](CNC(=O)c3ccc(/C=C/C(=O)NO)cc3)[C@@H]1C2` [Compound 38c, N-(((1S,2R,5S)-6,6-dimethylbicyclo[3.1.1]heptan-2-yl)methyl)-4-((E)-3-(hydroxyamino)-3-oxoprop-1-en-1-yl)benzamide] gave a melting point of 108.6 °C. In addition, the IC50 on HDAC6 (setting [5]) worked out at 8.03 µM. Also, the “DPPH value (TE)” value in data set [1] was 0.70 TE. Besides, the “ORAC value (TE)” value in data set [2] worked out at 1.02 TE. Also, the inhibition at 100 µM in data set [3] was at most 40%. The IC50 at 24 h in the data set “Cell viability, MTT test” was found to be 90.5 ± 2.9 µM.

Source of the values: paper PMC10254045, “Elaboration of the Effective Multi-Target Therapeutic Platform for the Treatment of Alzheimer’s Disease Based on Novel Monoterpene-Derived Hydroxamic Acids” (International Journal of Molecular Sciences, 2023).
